Test results from ChEMBL document CHEMBL1201862, “PubChem BioAssay data set” (2004).
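Growth conditions: 96-well plates. Treatment: test compound, 48 hours, 5 concentrations. Analysis: linear interpolation between bracketing concentrations; unreached endpoints set to highest concentration. At the GI50, growth is halved.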 Activity calls are given as the source filed them. Rule as the data show it: active = GI50 up to about 1.1 µM and inactive = higher.

Columns and labels:
Assay in all cases: NCI tumour cell line growth inhibition, 48 h
SNB-75 = system: SNB-75
Hs-578T = system: Hs-578T
NCI-H226 = system: NCI-H226
OVCAR-3 = system: OVCAR-3
UACC-257 = system: UACC-257
SK-MEL-5 = system: SK-MEL-5
Malme-3M = system: Malme-3M
SW-620 = system: SW-620
HOP-92 = system: HOP-92
KM12 = system: KM12
MOLT-4 = system: MOLT-4
K562 = system: K562
OVCAR-8 = system: OVCAR-8
HCC 2998 = system: HCC 2998
OVCAR-4 = system: OVCAR-4
SK-MEL-2 = system: SK-MEL-2
NCI-H23 = system: NCI-H23
T47D = system: T47D
SK-OV-3 = system: SK-OV-3
OVCAR-5 = system: OVCAR-5
RXF 393 = system: RXF 393
LOX IMVI = system: LOX IMVI
SF-539 = system: SF-539
COLO 205 = system: COLO 205
MDA-N = system: MDA-N
A549 = system: A549
MDA-MB-231 = system: MDA-MB-231
CAKI-1 = system: CAKI-1
SK-MEL-28 = system: SK-MEL-28
SNB-19 = system: SNB-19
EKVX = system: EKVX
RPMI-8226 = system: RPMI-8226
UO-31 = system: UO-31
SF-268 = system: SF-268
NCI-H460 = system: NCI-H460
ACHN = system: ACHN
UACC-62 = system: UACC-62
SF-295 = system: SF-295
CCRF-CEM = system: CCRF-CEM
786-0 = system: 786-0
U-251 = system: U-251
HOP-62 = system: HOP-62
A498 = system: A498
HL-60 = system: HL-60
HT-29 = system: HT-29
NCI-H522 = system: NCI-H522
SN12C = system: SN12C
SR = system: SR
DU-145 = system: DU-145
IGROV-1 = system: IGROV-1
M14 = system: M14
MCF7 = system: MCF7
HCT-116 = system: HCT-116
PC-3 = system: PC-3
TK-10 = system: TK-10
NCI/ADR-RES = system: NCI/ADR-RES
MDA-MB-435 = system: MDA-MB-435
HCT-15 = system: HCT-15

CN(C)/C=N\c1cccc2c1NSN2
GI50 (SNB-75): > 100 µM (inactive)
GI50 (Hs-578T): > 100 µM (inactive)
GI50 (NCI-H226): > 100 µM (inactive)
GI50 (OVCAR-3): > 100 µM (inactive)
GI50 (UACC-257): > 100 µM (inactive)
GI50 (SK-MEL-5): > 100 µM (inactive)
GI50 (Malme-3M): > 100 µM (inactive)
GI50 (SW-620): > 100 µM (inactive)
GI50 (HOP-92): > 100 µM (inactive)
GI50 (KM12): > 100 µM (inactive)
GI50 (MOLT-4): > 100 µM (inactive)
GI50 (K562): > 100 µM (inactive)
GI50 (OVCAR-8): > 100 µM (inactive)
GI50 (HCC 2998): > 100 µM (inactive)
GI50 (OVCAR-4): > 100 µM (inactive)
GI50 (SK-MEL-2): > 100 µM (inactive)
GI50 (NCI-H23): > 100 µM (inactive)
GI50 (T47D): > 100 µM (inactive)
GI50 (SK-OV-3): > 100 µM (inactive)
GI50 (OVCAR-5): > 100 µM (inactive)
GI50 (RXF 393): > 100 µM (inactive)
GI50 (LOX IMVI): > 100 µM (inactive)
GI50 (SF-539): > 100 µM (inactive)
GI50 (COLO 205): > 100 µM (inactive)
GI50 (MDA-N): > 100 µM (inactive)
GI50 (A549): > 100 µM (inactive)
GI50 (MDA-MB-231): > 100 µM (inactive)
GI50 (CAKI-1): > 100 µM (inactive)
GI50 (SK-MEL-28): > 100 µM (inactive)
GI50 (SNB-19): > 100 µM (inactive)
GI50 (EKVX): > 100 µM (inactive)
GI50 (RPMI-8226): > 100 µM (inactive)
GI50 (UO-31): > 100 µM (inactive)
GI50 (SF-268): > 100 µM (inactive)
GI50 (NCI-H460): > 100 µM (inactive)
GI50 (ACHN): > 100 µM (inactive)
GI50 (UACC-62): > 100 µM (inactive)
GI50 (SF-295): > 100 µM (inactive)
GI50 (CCRF-CEM): > 100 µM (inactive)
GI50 (786-0): > 100 µM (inactive)
GI50 (U-251): > 100 µM (inactive)
GI50 (HOP-62): > 100 µM (inactive)
GI50 (A498): > 100 µM (inactive)
GI50 (HL-60): > 100 µM (inactive)
GI50 (HT-29): > 100 µM (inactive)
GI50 (NCI-H522): > 100 µM (inactive)
GI50 (SN12C): > 100 µM (inactive)
GI50 (SR): > 100 µM (inactive)
GI50 (DU-145): > 100 µM (inactive)
GI50 (IGROV-1): > 100 µM (inactive)
GI50 (M14): > 100 µM (inactive)
GI50 (MCF7): > 100 µM (inactive)
GI50 (HCT-116): > 100 µM (inactive)
GI50 (PC-3): > 100 µM (inactive)
GI50 (TK-10): > 100 µM (inactive)
GI50 (NCI/ADR-RES): > 100 µM (inactive)
GI50 (MDA-MB-435): > 100 µM (inactive)
GI50 (HCT-15): > 100 µM
